Consider 13 compounds from US10787483B2, “Antimicrobial peptidomimetics” (Agency for Science, Technology and Research, priority 2014, dated 2020).

In brackets after ≈: the same amount, converted by molar mass. Like-named read-outs stand apart in the source and are kept apart here. Square brackets hold non-standard residues; d marks the D form. Peptide text beside a SMILES is read from it. * marks the point of attachment. ξ: configuration not given here. Bip = N[C@@H](Cc1ccc(-c2ccccc2)cc1)C(=O)O; ξpGlu = O=C1CCC(C(=O)O)N1; Agmatine = N=C(N)NCCCCN*

The test system of one experiment is E. faecalis. Put plainly: Antibacterial activity on E. faecalis. The experiment is classed as cell-based. Here is the method: (§1) Using a sterile loop, 3 to 5 isolated colonies of bacteria of the same morphological appearance are selected from the overnight agar plate. The colonies are transferred into a conical flask containing 5 mL of liquid medium (i.e. Mueller-Hinton broth). The broth is incubated at 37° C. in a shaker at 220 rpm until it reaches a turbidity that is equal to the turbidity of a McFarland Standard 0.5 (correspond to 1×10^8 cfu/mL). This culture growth step will require 1-2 hours depending on the bacteria tested.
(§2) During this pause period, an antibacterial dilution is prepared. Therefore an antibacterial stock solution is diluted in Mueller-Hinton broth. The concentration of DMSO is kept at 5%. 100 μL of the antibacterial solution are dispensed into the first well of a row. 50 μL of medium containing 0.5% of DMSO are dispensed to the rest of the wells. […]
(§3) The bacterial suspension prepared above is mixed thoroughly, and diluted by a factor of 1:100 in the sterile medium. […] The colonies on the agar plate are counted the next day to verify that the right number of cfu was inoculated. The plate is agitated in the SpectraMax spectrophotometer for 90 s and the OD600 for all the wells in the plate is recorded.

The test system of a further experiment is MRSA (ATCC 33591). Put plainly: MIC determination by broth microdilution vs. MRSA (ATCC 33591). As to conditions: for MIC: Staphylococcus aureus. The experiment is classed as cell-based, Staphylococcus aureus. As to the method: as §1
During this pause period, an antibacterial dilution is prepared. Therefore an antibacterial stock solution is diluted in Mueller-Hinton broth. The concentration of DMSO is kept at 5%. 100 μL of the antibacterial solution are dispensed into the first well of a row. 50 μL of medium containing 0.5% of DMSO are dispensed to the rest of the wells. A 2-fold serial dilution is achieved by transferring 50 μL from the first well (containing the highest concentration of antibacterial) into the second well, and continuing like this until the 10th well in the row. The final 50 μL are discarded so that every well has 50 μL of each antibacterial dilution.
The 11th well was used as the growth control well (medium with bacterial inoculums, no antibacterial) while the 12th well was the sterility control well (medium only).
The bacterial suspension prepared above is mixed thoroughly, and diluted by a factor of 1:100 in the sterile medium. Each well and the growth control well is inoculated with 50 μL of the bacterial suspension. […] To the sterility control well 50 μL of sterile medium are added in place of the bacterial suspension. 10 μL aliquot from the growth control well is removed immediately after inoculating the plate and pipetted it into a sterile Eppendorf tube holding 990 μL of sterile broth. It is mixed well by vortexing. This suspension is further diluted (1:10) by pipetting 100 μL into 900 μL of sterile broth and mixing it well. 100 μL of each of the two dilutions are plated onto two different antibacterial-free agar plates. A sterile cell spreader is used to spread the liquid. Then the plate is sealed with a transparent adhesive film. The microtiter plate and agar plates are incubated at 37° C. for 16-20 hours or until satisfactory growth is obtained. The colonies on the agar plate are counted the next day to verify that the right number of cfu was inoculated. The plate is agitated in the SpectraMax spectrophotometer for 90 s and the OD600 for all the wells in the plate is recorded.

The subject of experiment [1] is Strep. pyogenes (ARC 838). Put plainly: MIC determination by broth microdilution vs. Strep. pyogenes (ARC 838). As to conditions: Streptococcus pyogenes. The experiment is classed as cell-based. As to the method: as §1, §2, §3
In general terms: Dilution methods test growth across graded concentrations, often in twofold steps.

Experiment [2] deals with S. aureus (ATCC 29213). As to the kind of experiment: MIC determination by broth microdilution vs. S. aureus (ATCC 29213). The experiment is classed as cell-based. Particulars: Staphylococcus aureus. Here is the method:
as §1, §2, §3

Experiment [3] has as its system Strep. pneumoniae (ATCC 49619). Put plainly: MIC determination by broth microdilution vs. Strep. pneumoniae (ATCC 49619). The experiment is classed as cell-based, Streptococcus pneumoniae. As to the method: as §1, §2, §3
In a further experiment the test system is S. aureus (RN 4220). As to the kind of experiment: MIC determination by broth microdilution vs. S. aureus (RN 4220). As to conditions: Staphylococcus aureus. The class given is cell-based. As to the method:
as §1, §2, §3

Experiment [4] has as its system S. aureus (ATCC 29213). As to the kind of experiment: Bactericidal activity at MIC after dilution of the antibacterial (FIG. 2). The experiment is classed as cell-based, Staphylococcus aureus. Particulars: treatment at its MIC.
The subject of another experiment is MRSA ATCC-BAA-1681. Put plainly: MIC, panel of MRSA strains: ATCC-BAA-1681. The class given is cell-based. Particulars: Staphylococcus aureus; MRSA strain ATCC-BAA-1681. As to the method: as §1, §2
(§4) The bacterial suspension prepared above is mixed thoroughly, and diluted by a factor of 1:100 in the sterile medium. […] The colonies on the agar plate are counted the next day to verify that the right number of cfu was inoculated. The plate is agitated in the SpectraMax spectrophotometer for 90 s and the OD600 for all the wells in the plate is recorded. […]

For the next experiment, the system named is MRSA ATCC-BAA-44. Put plainly: MIC, panel of MRSA strains: ATCC-BAA-44. The class given is cell-based. Particulars: Staphylococcus aureus; MRSA strain ATCC-BAA-44. Here is the method:
as §1, §2, §4

For a further experiment, the system named is MRSA ATCC-1720. Put plainly: MIC, panel of MRSA strains: ATCC-1720. The class given is cell-based. As to conditions: Staphylococcus aureus; MRSA strain ATCC-1720. Here is the method:
as §1, §2, §4

In another experiment the test system is MRSA ATCC-700699. As to the kind of experiment: MIC, panel of MRSA strains: ATCC-700699. The experiment is classed as cell-based. As to conditions: Staphylococcus aureus; MRSA strain ATCC-700699. As to the method:
as §1, §2, §4

A further experiment has as its system MRSA ATCC-BAA-1680. Put plainly: MIC, panel of MRSA strains: ATCC-BAA-1680. The experiment is classed as cell-based. As to conditions: Staphylococcus aureus; MRSA strain ATCC-BAA-1680. Here is the method: as §1, §2, §4
The next experiment concerns MRSA ATCC-2094. As to the kind of experiment: MIC, panel of MRSA strains: ATCC-2094. The class given is cell-based. Particulars: Staphylococcus aureus; MRSA strain ATCC-2094. As to the method: as §1, §2, §4
The mark [5] stands for this setting: MRSA (ATCC 33591), read-out: MIC.

Take `N=C(N)NCCCCNC(=O)[C@H](Cc1ccc(-c2ccccc2)cc1)NC(=O)[C@H](CCCNC(=N)N)NC(=O)[C@@H](N)Cc1ccc(-c2ccccc2)cc1` [Compound 1a, Bip-Arg-Bip-agmantine]: the “activity on E. faecalis” value in the experiment on E. faecalis is listed as “showed activity”. Also, in the experiment with MRSA (ATCC 33591) (S. aureus tests (ATCC 33591, RN 4220, ATCC 29123)), the “MIC value compared with Linezolid and Daptomycin” value was “lower MIC value”. In addition, the MIC in the experiment with MRSA (ATCC 33591) (MRSA (ATCC 33591), read-out: MIC value) came out at 3.12 µM (≈ 2.29 µg/mL); in the experiment on MRSA (ATCC 33591) (MRSA (ATCC 33591), read-out: MIC(μM) (ATCC 33591)), 3.12 µM (≈ 2.29 µg/mL); in experiment [1], 6.25 µM (≈ 4.58 µg/mL); in the experiment with S. aureus (ATCC 29213) [2] (ATCC 29123 / ATCC 29213, S. aureus (ATCC 29123) as printed, read-out: MIC value) it was 3.12 µM (≈ 2.29 µg/mL); in the experiment on S. aureus (ATCC 29213) [2] (ATCC29213, S. aureus (ATCC 29213), read-out: MIC(μM) (ATCC 29213)), 3.12 µM (≈ 2.29 µg/mL); in experiment [3] (Streptococcus pneumoniae, ATCC49619, Strep. pneumoniae (ATCC 49619)), 6.25 µM (≈ 4.58 µg/mL). Moreover, the MIC against S. aureus (RN 4220) was determined as 3.12 µM (≈ 2.29 µg/mL). Moreover, the “MIC compared with Daptomycin” value in experiment [3] (Strep. tests (Strep. pneumoniae ATCC 49619, Strep. pyogenes ARC 838)) was “at least improvement over Daptomycin”. Moreover, the “mode of action (regrowth after dilution of the antibacterial)” value in the experiment with S. aureus (ATCC 29213) [4] is on record as “bactericidal mode of action”.
On to `N=C(N)NCCCCNC(=O)[C@H](Cc1ccc(-c2ccccc2)cc1)NC(=O)C[C@H](CCCNC(=N)N)NC(=O)[C@@H](N)Cc1ccc(-c2ccccc2)cc1` [Compound 20], for which the MIC with MRSA (ATCC 33591) (setting [5]) came to 6.25 µM (≈ 4.67 µg/mL).
Still for that read-out and setting: the figure for `N=C(N)NCCCCNC(=O)[C@H](Cc1ccc(-c2ccccc2)cc1)NC(=O)CN(CCCNC(=N)N)C(=O)[C@@H](N)Cc1ccc(-c2ccccc2)cc1` [Compound 21] is 6.25 µM (≈ 4.58 µg/mL); for `N=C(N)NCCCCNC(=O)[C@H](Cc1ccc(-c2ccccc2)cc1)NC(=O)[C@H](CCCNC(=N)N)NC(=O)[C@@H](N)Cc1ccc(Cl)cc1` [Compound 22] it is 25 µM (≈ 17.3 µg/mL); for `CC(=O)N[C@@H](Cc1ccc(-c2ccccc2)cc1)C(=O)N[C@@H](CCCNC(=N)N)C(=O)N[C@@H](Cc1ccc(-c2ccccc2)cc1)C(=O)NCCCCNC(=N)N` [Compound 23] it is 12.5 µM (≈ 9.69 µg/mL).
The same measure, in the same setting: as for `N=C(N)NCCCCNC(=O)[C@H](Cc1ccc(-c2ccccc2)cc1)NC(=O)[C@H](CCCNC(=N)N)NC(=O)[C@H](Cc1ccc(-c2ccccc2)cc1)NC(=O)C1CCC(=O)N1` (stereo partly drawn) [Compound 24] ([ξpGlu][Bip]R[Bip]-Agmatine), the figure is 12.5 µM (≈ 10.6 µg/mL).
On the same count and under the same terms, as for `CCCCCCCCCC(=O)N[C@@H](Cc1ccc(-c2ccccc2)cc1)C(=O)N[C@@H](CCCNC(=N)N)C(=O)N[C@@H](Cc1ccc(-c2ccccc2)cc1)C(=O)NCCCCNC(=N)N` [Compound 25], the figure is 12.5 µM (≈ 11.1 µg/mL); as for `CC(C)(C)c1ccc(-c2ccc(C[C@H](NC(=O)[C@H](CCCNC(=N)N)NC(=O)[C@@H](N)Cc3ccc(-c4ccc(C(C)(C)C)cc4)cc3)C(=O)NCCCCNC(=N)N)cc2)cc1` [Compound 26], 12.5 µM (≈ 10.6 µg/mL); as for `N=C(N)NCCCCNC[C@H](Cc1ccc(-c2ccccc2)cc1)NC(=O)[C@H](CCCNC(=N)N)NC(=O)[C@@H](N)Cc1ccc(-c2ccccc2)cc1` [Compound 27], 6.25 µM (≈ 4.49 µg/mL).
For the compound `N=C(N)NCCCCNC(=O)[C@H](Cc1ccc(-c2ccccc2)cc1)NC[C@H](CCCNC(=N)N)NC(=O)[C@@H](N)Cc1ccc(-c2ccccc2)cc1` [Compound 28], the MIC in the experiment with MRSA (ATCC 33591) (setting [5]) stood at 12.5 µM (≈ 8.99 µg/mL).
The same measure, in the same setting: as for `N=C(N)NCCCCNC(=O)[C@H](Cc1ccc(-c2ccccc2)cc1)NC(=O)[C@H](CCCNC(=N)N)NC[C@@H](N)Cc1ccc(-c2ccccc2)cc1` [Compound 29], the figure is 3.12 µM (≈ 2.25 µg/mL).
Turning to `N=C(N)NCCCCNC(=O)[C@@H](Cc1ccc(-c2ccccc2)cc1)NC(=O)[C@@H](CCCNC(=N)N)NC(=O)[C@H](N)Cc1ccc(-c2ccccc2)cc1` [Compound (A)], the MIC with MRSA ATCC-BAA-1681 amounted to 3.12 µM (≈ 2.29 µg/mL); in the experiment on MRSA (ATCC 33591) (setting [5]), 1.56 µM (≈ 1.14 µg/mL); in the experiment with MRSA (ATCC 33591) (MRSA strain ATCC-33591, read-out: MIC values), 1.56 µM (≈ 1.15 µg/mL); with MRSA ATCC-BAA-44, 3.12 µM (≈ 2.29 µg/mL); against MRSA ATCC-1720, 3.12 µM (≈ 2.29 µg/mL); against MRSA ATCC-700699, 3.12 µM (≈ 2.29 µg/mL). Further, the figures for the MIC in the experiment with MRSA ATCC-BAA-1680 and in the experiment on MRSA ATCC-2094 were 1.56 µM (≈ 1.15 µg/mL) and 3.12 µM (≈ 2.29 µg/mL), respectively.
`CC(=O)NC[C@H]1CN(c2ccc(N3CCOCC3)c(F)c2)C(=O)O1` [Linezolid, reference compound]: in the experiment with S. aureus (ATCC 29213) [4], the “mode of action (regrowth after dilution of the antibacterial)” value is listed as “bacteriostatic”.

The MIC is the lowest concentration that inhibits growth of the organism.
